Measured values: US20020058637A1, “Methods of inhibiting tau-protein kinase I activity, inhibiting neuronal cell death and treating alzheimer's disease and tau-protein kinase I” (priority 1993, published 2002)
“Also recorded” adds a separate entry of the source.

Key:
hippocampus cells = test: Inhibiting action for the death of cranial nerve cells by AβP (living cell count, phase contrast microscope); format: cell-based, rat; settings: for Numbers of Living Cells (%) After 6 hours / Numbers of Living Cells (%) After 21 hours: rat hippocampus cell culture, AβP 20 micromoles, oligonucleotide 1 micromole per 1 ml medium, 37° C., percentage to control
From the text: Numbers of many normal and healthy cells were counted by a phase contrast microscope as an index of the living cells after the treatment. Normal cells mean those which have morphologically flat circumference and many nerve cell projections while the degenerated cells were judged by checking the irregular shape, degeneration of the neural projections, etc. Numbers of the living cells were counted in a well. In the standard culture liquid, the cell numbers were not less than 400 per well. The result was confirmed by an immunohistochemical means.
The primary culture medium of hippocampus of rats was prepared in accordance with a method described in Brain Res., 126, 397-425 (1977). Thus, the hippocampus tissues were collected from embryo of the rats of 18 days after fertilization and digested in papain (protease) (10 U/ml) at 37° C. for 20 minutes. The resulting cells were added to a Dulbecco's modified Eagle's medium supplied with 5% bovine fetus serum, 5% horse serum, 10 micrograms/ml insulin, 0.1 mg/ml transferrin, 1 microgram/ml aprotinin, 1 mM sodium pyruvate and 84 micrograms/ml gentamycin. This was planted to a well for tissue culture covered with poly-L-lysine at the density of 2×10^5 cells/cm^2, cultured for three days and treated with 1 micromole of cytosine-beta-arabinofuranoside for 24 hours and the cells of the fifth day of the culture were used.
The culture medium of the hippocampus prepared by the above-mentioned method was subjected to the following treatments (b) to (d), numbers of the living cells with an elapse of time were counted and the result is given in Table
(a) Nontreated culture medium (control):
(b) TPKI-antisense (1 micromole) was added to 1 ml of the cell culture medium and, after five minutes, 20 micromoles of AβP was added followed by keeping at 37° C. for 24 hours.
(c) AβP (20 micromoles) was added to 1 ml of the cell cuture medium followed by keeping at 37° C. for 24 hours.
(d) TPKI-sense (1 micromole) was added to 1 ml of the cell culture medium and, after five minutes, 20 micromoles of AμP was added followed by keeping at 37° C. for 24 hours.

TPK-I = test: Phosphorylation of tau-protein by extract of treated hippocampus cells (phosphorylating activity of TPK-I); format: cell-based, rat; settings: 24 hours
Method: Hippocampus cells were collected from the culture medium by washing with an ice-cooled phosphate buffer for three times. The cells were suspended in a buffer A (pH: 6.8) which contained 1 mM EGTA, 0.5 mM magnesium acetate and 20 mM 2-(N-morpholino)-ethanesulfonic acid containing a phosphatase inhibitor ([…]; manufactured by Seikagaku Kogyo) and a protease inhibitor (1 mM phenylmethylsulfonyl fluoride and each 1 micro gram/ml of leupeptin, pepstatin and aprotinin), homogenized and centrifuged at 14,000 rpm for one hour and the supernatant liquid was used for checking the phosphorylation.
The rat tau-protein expressed in E. coli BL21 by a gene recombination was purified by a method described in J. Biol. Chem., 267, 10897-10901 (1992).
The hippocampus extract (1 microliter) was added to a solution of the rat tau-protein (400 micrograms/ml) dissolved in a buffer A containing 1 mM [τ-^32P]ATP (10-20 Ci/mmole) and then 10 micromoles of okadaic acid was added to make the final volume 10 microliters. This was incubated at 37° C. for three hours and the reaction was stopped by adding a buffer for electrophoresis. After subjecting to a 10% polyacrylamide gel electrophoresis, the ^32p in the tau-protein was observed by a laser image analyzer (Fuji BAS 2000).

tau-protein = test: Phosphorylation of tau-protein by recombinant human TPK-I expressed in E. coli (phosphorylating method I); format: biochemical, bovine; settings: room temperature, 20 hours
Method: tau-Protein extracted from bovine brain followed by purification (2 microliters; 1.5 mg/ml concentration) and 1 microliters of the above partially-purified enzyme solution were mixed. To the mixture was added a solution containing 2 mM adenosinetriphosphate and 2 mM magnesium acetate and [gamma-32P]adenosinetriphosphate so that the phosphorylation of tau-protein was conducted at room temperature for 20 hours whereby the amount of phosphoric acid incorporated in tau-protein was evaluated.

“5′-ATGTCGGGGCGACCGAGA-3′ (listed as DNA, chemistry not given here) [TPKI-Sense, tested together with AβP, reference compound]” was tested, and the “Numbers of Living Cells (%) After 6 hours” value (hippocampus cells) was 49.5% and the “Numbers of Living Cells (%) After 21 hours” value (hippocampus cells) was 17.1%.
In the case of “5′-TCTCGGTCGCCCCGACAT-3′ (listed as DNA, chemistry not given here) [TPKI-Antisense, tested together with AβP]”, the “cytotoxity by AβP observed with phase contrast microscope” value (hippocampus cells; TPKI-antisense and AβP on hippocampus cells, after 24 hours, magnifying power 400) is reported as “little being similar to the controls; also recorded: little and similar to the case of the control”, the “Numbers of Living Cells (%) After 6 hours” value (hippocampus cells) is reported as 83.0% and the “Numbers of Living Cells (%) After 21 hours” value (hippocampus cells) is reported as 72.6%. For the same substance, the “phosphorylating activity of TPK-I relative to the case in which only AβP was acted” value (TPK-I; TPKI-antisense and AβP versus only AβP) was “about one half; also recorded: about one-half” and the “Phosphorylating Activity of TPKI” value (TPK-I; hippocampus cell supernatant, AβP 20 micromoles, TPKI-antisense 1 micromole, rat tau-protein substrate) was 31.6 unit/mg protein.
With “partially-purified TPK-I: recombinant human-originated tau-protein kinase I (Seq. ID No. 1) expressed in E. coli BL21 (DE3), partially purified” the “phosphoric acid incorporated into one molecule of tau-protein” value (tau-protein) was 1.2 mol.
